Laboratory results reported in publication PMC7490411 (Signal Transduction and Targeted Therapy, 2020).

How the values were obtained:
[1] = tested on: TMD8 cell (DLBCL)-inoculated xenograft; test: TMD8 cell subcutaneous xenograft tumor model; format: in vivo
[2] = drug enrichment in the tumor; format: in vivo, mouse; conditions: 100 mg/kg
[3] = tested on: ABL1(E255K)-phosphorylated; test: KINOMEscan; format: binding; conditions: 1000 nM
[4] = tested on: ABL1(Q252H)-nonphosphorylated; test: KINOMEscan; format: binding; conditions: 1000 nM
[5] = tested on: ABL1(T315I)-phosphorylated; test: KINOMEscan; format: binding; conditions: 1000 nM
ABL1-nonphosphorylated = test: KINOMEscan; format: binding; conditions: 1000 nM
ABL2 = test: KINOMEscan; format: binding; conditions: 1000 nM
ADCK4 = test: KINOMEscan; format: binding; conditions: 1000 nM
AKT1 = test: KINOMEscan; format: binding; conditions: 1000 nM
BLK = molecular target: T1, BLK (Homo sapiens, UniProt P51451); test: KINOMEscan; format: binding; conditions: 1000 nM
T1 construct: purchased Invitrogen (Carlsbad, CA, USA)

BRAF = test: KINOMEscan; format: binding; conditions: 1000 nM
BRSK1 = test: KINOMEscan; format: binding; conditions: 1000 nM
CAMK2D = test: KINOMEscan; format: binding; conditions: 1000 nM
CHEK2 = test: KINOMEscan; format: binding; conditions: 1000 nM
DCAMKL1 = test: KINOMEscan; format: binding; conditions: 1000 nM
DYRK1B = test: KINOMEscan; format: binding; conditions: 1000 nM
EPHB6 = test: KINOMEscan; format: binding; conditions: 1000 nM
ERN1 = test: KINOMEscan; format: binding; conditions: 1000 nM
FYN = test: KINOMEscan; format: binding; conditions: 1000 nM
GRK4 = test: KINOMEscan; format: binding; conditions: 1000 nM
HIPK2 = test: KINOMEscan; format: binding; conditions: 1000 nM
IKK-epsilon = test: KINOMEscan; format: binding; conditions: 1000 nM
KIT(V559D,T670I) = test: KINOMEscan; format: binding; conditions: 1000 nM
MAP3K1 = test: KINOMEscan; format: binding; conditions: 1000 nM
MAP4K3 = test: KINOMEscan; format: binding; conditions: 1000 nM
MAST1 = test: KINOMEscan; format: binding; conditions: 1000 nM
MET = test: KINOMEscan; format: binding; conditions: 1000 nM
MLK2 = test: KINOMEscan; format: binding; conditions: 1000 nM
MRCKB = test: KINOMEscan; format: binding; conditions: 1000 nM
MST1 = test: KINOMEscan; format: binding; conditions: 1000 nM
MST2 = test: KINOMEscan; format: binding; conditions: 1000 nM
MST4 = test: KINOMEscan; format: binding; conditions: 1000 nM
MUSK = test: KINOMEscan; format: binding; conditions: 1000 nM
MYO3B = test: KINOMEscan; format: binding; conditions: 1000 nM
PIK3C2G = test: KINOMEscan; format: binding; conditions: 1000 nM
PIK3CA(C420R) = test: KINOMEscan; format: binding; conditions: 1000 nM
PKMYT1 = test: KINOMEscan; format: binding; conditions: 1000 nM
PRKCH = test: KINOMEscan; format: binding; conditions: 1000 nM
PRKD1 = test: KINOMEscan; format: binding; conditions: 1000 nM
RIPK4 = test: KINOMEscan; format: binding; conditions: 1000 nM
[6] = tested on: RSK4(Kin.Dom.2-C-terminal); test: KINOMEscan; format: binding; conditions: 1000 nM
SBK1 = test: KINOMEscan; format: binding; conditions: 1000 nM
SNRK = test: KINOMEscan; format: binding; conditions: 1000 nM
SRPK1 = test: KINOMEscan; format: binding; conditions: 1000 nM
SRPK2 = test: KINOMEscan; format: binding; conditions: 1000 nM
STK16 = test: KINOMEscan; format: binding; conditions: 1000 nM
STK35 = test: KINOMEscan; format: binding; conditions: 1000 nM
STK39 = test: KINOMEscan; format: binding; conditions: 1000 nM
TLK2 = test: KINOMEscan; format: binding; conditions: 1000 nM
TNNI3K = test: KINOMEscan; format: binding; conditions: 1000 nM
ULK3 = test: KINOMEscan; format: binding; conditions: 1000 nM
WNK1 = test: KINOMEscan; format: binding; conditions: 1000 nM
ZAK = test: KINOMEscan; format: binding; conditions: 1000 nM

T1 sequence (P51451 whole entry): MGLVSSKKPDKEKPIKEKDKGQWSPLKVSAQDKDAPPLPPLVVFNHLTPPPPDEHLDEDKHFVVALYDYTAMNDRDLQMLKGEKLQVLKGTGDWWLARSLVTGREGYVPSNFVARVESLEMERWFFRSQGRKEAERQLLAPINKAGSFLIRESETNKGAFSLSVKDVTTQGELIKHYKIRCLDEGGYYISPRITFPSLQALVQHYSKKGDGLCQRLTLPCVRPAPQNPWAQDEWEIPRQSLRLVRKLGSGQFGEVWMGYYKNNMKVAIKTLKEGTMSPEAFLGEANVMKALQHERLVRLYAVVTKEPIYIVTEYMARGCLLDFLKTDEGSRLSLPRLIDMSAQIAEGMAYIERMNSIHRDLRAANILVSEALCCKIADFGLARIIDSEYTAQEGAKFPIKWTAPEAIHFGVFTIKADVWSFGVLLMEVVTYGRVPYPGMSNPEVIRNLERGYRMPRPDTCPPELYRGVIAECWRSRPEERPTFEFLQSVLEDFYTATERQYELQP

## C=CC(=O)Nc1cc(Nc2cc(-c3cccc(NC(=O)c4cc5c(s4)CCCC5)c3C)cn(C)c2=O)ccc1N1CCN(CC)CC1 [CHMFL-BTK-85]
[1]; TMD8 xenograft, 100 mg/kg/day, 28 days
  TGI: 96%
[1]; mouse, body weight monitoring
  toxicity signs in TMD8 xenograft model: no weight loss or any other obvious signs of toxicity
[2]
  concentration in the tumor: 2.37 µM
[3]
  Percent Control: 85%
[4]
  Percent Control: 84%
[5]
  Percent Control: 100%
ABL1-nonphosphorylated
  Percent Control: 76%
ABL2
  Percent Control: 88%
ADCK4
  Percent Control: 100%
AKT1
  Percent Control: 80%
BLK
  percent of control kinase binding at 1 µM: 57%
BRAF
  Percent Control: 100%
BRSK1
  Percent Control: 100%
CAMK2D
  Percent Control: 75%
CHEK2
  Percent Control: 94%
DCAMKL1
  Percent Control: 100%
DYRK1B
  Percent Control: 99%
EPHB6
  Percent Control: 69%
ERN1
  Percent Control: 100%
FYN
  Percent Control: 74%
GRK4
  Percent Control: 88%
HIPK2
  Percent Control: 100%
IKK-epsilon
  Percent Control: 53%
KIT(V559D,T670I)
  Percent Control: 100%
MAP3K1
  Percent Control: 99%
MAP4K3
  Percent Control: 97%
MAST1
  Percent Control: 100%
MET
  Percent Control: 62%
MLK2
  Percent Control: 90%
MRCKB
  Percent Control: 75%
MST1
  Percent Control: 100%
MST2
  Percent Control: 88%
MST4
  Percent Control: 100%
MUSK
  Percent Control: 91%
MYO3B
  Percent Control: 92%
PIK3C2G
  Percent Control: 63%
PIK3CA(C420R)
  Percent Control: 98%
PKMYT1
  Percent Control: 63%
PRKCH
  Percent Control: 93%
PRKD1
  Percent Control: 100%
RIPK4
  Percent Control: 100%
[6]
  Percent Control: 83%
SBK1
  Percent Control: 100%
SNRK
  Percent Control: 86%
SRPK1
  Percent Control: 100%
SRPK2
  Percent Control: 100%
STK16
  Percent Control: 68%
STK35
  Percent Control: 100%
STK39
  Percent Control: 100%
TLK2
  Percent Control: 100%
TNNI3K
  Percent Control: 93%
ULK3
  Percent Control: 100%
WNK1
  Percent Control: 100%
ZAK
  Percent Control: 99%
